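Grown in 96-well plates, cells were treated for 48 hours with each compound at five concentrations. Insufficient inhibition: endpoint recorded as highest concentration tested. The concentration for 50% growth inhibition is given as GI50.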 The source made the active and inactive calls. No stated cut-off is given here; in the data, active = GI50 up to about 1.1 µM and inactive = higher.
Experiments:
Test in all cases: growth of human tumour cells (NCI), 48 h
NCI-H226 = system: NCI-H226
U-251 = system: U-251
SK-MEL-5 = system: SK-MEL-5
OVCAR-4 = system: OVCAR-4
HCC 2998 = system: HCC 2998
Hs-578T = system: Hs-578T
SW-620 = system: SW-620
MDA-MB-231 = system: MDA-MB-231
SR = system: SR
Malme-3M = system: Malme-3M
CCRF-CEM = system: CCRF-CEM
OVCAR-5 = system: OVCAR-5
RXF 393 = system: RXF 393
HL-60 = system: HL-60
NCI-H23 = system: NCI-H23
SN12C = system: SN12C
HCT-15 = system: HCT-15
UACC-62 = system: UACC-62
SNB-75 = system: SNB-75
SK-MEL-2 = system: SK-MEL-2

SMILES	GI50 (NCI-H226)	GI50 (U-251)	GI50 (SK-MEL-5)	GI50 (OVCAR-4)	GI50 (HCC 2998)	GI50 (Hs-578T)	GI50 (SW-620)	GI50 (MDA-MB-231)	GI50 (SR)	GI50 (Malme-3M)	GI50 (CCRF-CEM)	GI50 (OVCAR-5)	GI50 (RXF 393)	GI50 (HL-60)	GI50 (NCI-H23)	GI50 (SN12C)	GI50 (HCT-15)	GI50 (UACC-62)	GI50 (SNB-75)	GI50 (SK-MEL-2)
NNC(=O)CCSc1ccccc1	> 100 µM (inactive)	> 100 µM (inactive)	> 100 µM (inactive)	> 100 µM (inactive)	> 100 µM (inactive)	> 100 µM (inactive)	> 100 µM (inactive)	> 100 µM (inactive)	> 100 µM (inactive)	> 100 µM (inactive)	> 100 µM (inactive)	> 100 µM (inactive)	> 100 µM (inactive)	> 100 µM (inactive)	> 100 µM (inactive)	> 100 µM (inactive)	> 100 µM	> 100 µM (inactive)	> 100 µM (inactive)	> 100 µM (inactive)
COc1cc2cc(C(=O)N3CC(CCl)c4ccc([N+](C)(C)Cc5ccc([N+](=O)[O-])cc5)cc43)[nH]c2c(OC)c1OC (stereo not given)	2.82 µM (inactive)	2.71 µM (inactive)	1.71 µM (inactive)	3.09 µM (inactive)	1.41 µM (inactive)	9.62 µM (inactive)	1.5 µM (inactive)	7.55 µM (inactive)	0.363 µM (active)	2.48 µM (inactive)	2.01 µM (inactive)	3.87 µM (inactive)	1.36 µM (inactive)	2.04 µM (inactive)	1.77 µM (inactive)	4.55 µM (inactive)	3.2 µM	2.13 µM (inactive)	3.3 µM (inactive)	2.05 µM (inactive)
COc1ccc(/C(Cl)=C(\C=O)c2cc(OC)c(OC)c(OC)c2)cc1OC	19.8 µM (inactive)	23 µM (inactive)	14.8 µM (inactive)	24.3 µM (inactive)	26.4 µM (inactive)	27.5 µM (inactive)	> 61.2 µM (inactive)	68.5 µM (inactive)	> 100 µM (inactive)	15 µM (inactive)	26.1 µM (inactive)	67.8 µM (inactive)	> 100 µM (inactive)	5.78 µM (inactive)	12.3 µM (inactive)	23.2 µM (inactive)	19.8 µM	15.7 µM (inactive)	10.8 µM (inactive)	19.6 µM (inactive)
COC(=O)C(Cc1c[nH]c2ccccc12)NC1=Nc2ccncc2S(=O)(=O)N1c1cccc(OC(C)C)c1 (stereo not given)	> 100 µM (inactive)	47.6 µM (inactive)	25.5 µM (inactive)	37.2 µM (inactive)	48.8 µM (inactive)	> 100 µM (inactive)	92.5 µM (inactive)	49.4 µM (inactive)	21.8 µM (inactive)	56.1 µM (inactive)	20.6 µM (inactive)	> 100 µM (inactive)	> 100 µM (inactive)	22.4 µM (inactive)	20.1 µM (inactive)	48.1 µM (inactive)	43.2 µM	25.9 µM (inactive)	53.2 µM (inactive)	39.7 µM (inactive)
CCOC(=O)Nc1nc(-c2ccccc2)c(C)s1	> 100 µM (inactive)	> 100 µM (inactive)	> 100 µM (inactive)	81.5 µM (inactive)	> 100 µM (inactive)	> 100 µM (inactive)	> 100 µM (inactive)	> 100 µM (inactive)	49.9 µM (inactive)	> 100 µM (inactive)	31.5 µM (inactive)	> 100 µM (inactive)	> 100 µM (inactive)	11.1 µM (inactive)	81.1 µM (inactive)	> 100 µM (inactive)	40.9 µM	> 100 µM (inactive)	31.8 µM (inactive)	> 100 µM (inactive)
CC(=O)NC1C(OCc2ccccc2)OC(CO)C(O)C1OCC(=O)N1CCCC1C(=O)NC(CCC(=O)NCCCCCNc1c2ccccc2nc2cccc([N+](=O)[O-])c12)C(N)=O (stereo not given)	0.114 µM (active)	0.0108 µM (active)	0.00853 µM (active)	0.0982 µM (active)	0.00706 µM (active)	0.0345 µM (active)	0.00399 µM (active)	0.0175 µM (active)	0.281 µM (active)	0.0188 µM (active)	0.07 µM (active)	0.0231 µM (active)	0.00938 µM (active)	0.0221 µM (active)	0.0336 µM (active)	0.011 µM (active)	0.0164 µM	0.0225 µM (active)	0.145 µM (active)	0.019 µM (active)
